Reference: patent US20230357134A1, “AGENTS FOR USE IN THE TREATMENT OF AMYLOIDOSIS” (UCL BUSINESS LTD, priority 2020, published 2023)

Legend:
[1] = biological target: T1, native recombinant wild type TTR (Homo sapiens, UniProt P02766); test: Kinetics of ligand binding by TTR (stopped flow quenching of intrinsic fluorescence); conditions: for T 1/2: TTR 1 μM with equimolar ligand, 37° C., PBS pH 7.4, t½ = ln 2/k
T1 construct: the non-covalently associated protomers, of mass 13,761, each contain 127 residues; His6 (N); TEV cleavage site (N); made in house; host or cells: E. coli BL21 (DE3)
Description: Ligand binding by native TTR quenches the intrinsic fluorescence of the protein. After mixing of ligands with TTR in solution, monitoring emission of the intrinsic fluorescence over time defines the rate at which the ligand is bound by the protein. The fast phase of these binding kinetics was characterized using an SFM 3000 stopped flow device coupled to a MOS500 spectrometer with a fluorescence detection system (Bio Logic, Claix, France) and a cell path length of 1.5 mm. TTR and ligands at 37° C. were mixed at final concentrations of 1 μM each in PBS pH 7.4 containing 0.9% v/v DMSO, and were excited at 280 nm for measurement of total fluorescence emission over 325 nm using a cut off filter. Kinetic data were acquired as the average of at least 3 experimental mixings and fitted to a first order reaction using the general formula y(t)=at +b+C exp (−kt), where y(t) is the observed fluorescence, a (slope) and b (offset) corresponding to the baseline. C and k are, respectively, amplitude and rate constant of the observed fluorescence change. Data were analysed using the Biokine software and values of half-life time (t½) correspond to ln 2/k. (Table 3).

[2] = background statement; cited from earlier work
[3] = biological target: T2, TTR in whole human plasma (Homo sapiens, UniProt P02766); test: Displacement of 125I-T4 from TTR in normal human plasma; type: binding; conditions: wild type TTR, 30 min 37° C. with ligand, immunoprecipitation, mean of at least 3 replicates, read-out: D50 plasma
T2 construct: TTR in whole plasma, from individuals homozygous for wild type TTR; from tissue; host or cells: whole human plasma
Description: 3.2 Displacement of ^125-T4 from TTR in Normal Human Plasma.
The displacement of ^125I-T4 from TTR in whole plasma, from individuals homozygous for wild type TTR, was studied by incubating plasma with each ligand at increasing concentrations for 30 min at 37° C., further incubation with […] followed by measurement of the radioactivity in the immunoprecipitate obtained with anti-TTR antibodies. […] Percentage binding was plotted against the logarithm of the inhibitor concentration, and D50 (concentration of ligand reducing the binding of T4 by TTR by 50%) was determined using a four parameter dose-response curve with GraphPad Prism 5 (Table 1).

[4] = Rat oral pharmacokinetics; conditions: in vivo, 5 mg/kg, 5 mpk
[5] = Rat IV pharmacokinetics; conditions: in vivo, 1 mg/kg, 1 mpk, read-out: Rat IV PK t½ (converted)
[6] = biological target: T3, isolated wild type TTR (Homo sapiens, UniProt P02766); test: Displacement of 125I-T4 from isolated wild type TTR in buffer; conditions: concentration of ligand reducing binding of 125I-T4 by TTR by 50%; 125 nM TTR, pH 8.0, overnight 4° C.; mean of at least 3 replicates; read-out: D50 buffer
T3 construct: the non-covalently associated protomers, of mass 13,761, each contain 127 residues; His6 (N); TEV cleavage site (N); made in house; host or cells: E. coli BL21 (DE3)
Description: 3. Evaluation of Ligand Activity Based on Capacity to Displace ^125I-Thyroxine (T4) from TTR in Buffer/Human Plasma 3.1 Displacement of ^125I-T4 from Isolated Wild Type TR.
Competition of ligands with T4 for binding by TTR was assayed quantitatively by a previously described procedure (Kolstoe et al., 2010). Briefly, a solution of 125 nM TTR in 0.1 M Tris-HCl, 0.1 M NaCl and 0.001 M EDTA buffer, pH 8.0, was incubated overnight at 4° C. in the presence of 1.07 nM ^125I T4 (1,200 μCi/μg, 200 μCi/ml, Perkin Elmer) and increasing concentrations of inhibitor (0-5 μM) in 40 μl final volume. ^125I T4 bound by TTR was separated from unbound T4 by gel filtration chromatography using Micro Bio Spin 6 columns (Bio-Rad) previously equilibrated with the reaction buffer containing 1% w/v BSA. After counting with a Wizard2 gamma counter (Perkin-Elmer) for 60 s, percentage binding was plotted against the logarithm of the inhibitor concentration, and D50 (concentration of ligand reducing the binding of T4 by TTR by 50%) was determined using a four parameters dose-response curve with GraphPad Prism 5 (Table 1).

[7] = biological target: T4, recombinant Val122Ile TTR (Homo sapiens, UniProt P02766, V142I); test: Mechano-enzymatic fibrillogenesis, TTR aggregation by turbidity at 400 nm; type: biochemical; conditions: equimolar ligand, Val122Ile TTR 9 μM, trypsin, 96 h; 100 % = protein without ligand; mean (SD)
T4 construct: the non-covalently associated protomers, of mass 13,761, each contain 127 residues; His6 (N); TEV cleavage site (N); made in house; host or cells: E. coli BL21 (DE3)
Description: (§1) Briefly, fibrillogenesis of recombinant Val122Ile TTR at 0.5 mg/ml (9 μM) in PBS, pH 7.4 was carried out in glass vials stirred at 1,400 rpm (IKA magnetic stirrer) and 37° C. in the presence and in the absence of trypsin (5 ng/μl). […] Each ligand was tested at 4 different concentrations (4.5, 9, 18, 36 μM respectively) corresponding to the following drug/TTR molar ratios of 0.5:1, 1:1, 2:1 and 4:1. Several dilutions of the drug stock solutions were made in order to add the same volume of DMSO to each sample. Control samples without drug were added with the same volume of DMSO only. To allow complete binding of ligand by TTR each sample was incubated for 30 min at 37° C. before addition of trypsin. Spectrophotometric turbidity at 400 nm was used to monitor fibril formation over time until it reached a plateau at 96 h. Aggregation of TTR in the presence of equimolar ligand concentrations was quantified as spectrophotometric turbidity at 400 nm as a proportion of 100% for aggregation of the protein in the absence of ligands (Table 2).

[8] = biological target: T4, recombinant Val122Ile TTR; test: Mechano-enzymatic fibrillogenesis, TTR amyloid by ThT emission fluorescence; type: biochemical; conditions: equimolar ligand, 96 h pellets, normalized to 100 % without ligand, mean (SD)
Description: as §1
At the end of the 96 h aggregation, pellets were harvested from each protein sample by 20 min centrifugation at 11,600 g, thoroughly rinsed with PBS to remove non-bound ligand, resuspended with 100 μl PBS, pH 7.4 containing 10 μM ThT in Costar 96-well black-wall plates. Bottom fluorescence values (excitation 440 nm, emission 480 nm) were recorded using a BMG LABTECH FLUostar Omega plate reader. Each value was normalized to the ThT signal of the TTR sample without ligand (Table 2)

[9] = biological target: T5, (2H, 13C, 15N) TTR (Homo sapiens, UniProt P02766); test: 2D NMR [1H,15N] TROSY of TTR-ligand complexes; type: binding; conditions: equimolar ligand, 90 μM TTR, PBS pH 7.4, 310K
T5 construct: the non-covalently associated protomers, of mass 13,761, each contain 127 residues; His6 (N); TEV cleavage site (N); made in house; host or cells: E. coli BL21 (DE3)
Description: Using the same methodology as in Corazza 2019, we have studied the effect of equimolar addition of T304 or B23 to a sample of 90 μM (^2H, ^13C,^15N) TTR in PBS buffer, pH 7.4. 2D NMR [^1H,[…]] TROSY spectra were acquired with a Bruker AVANCE 800 MHz Spectrometer at 310K. After the addition of T304 or B23 to TTR some of the amide peaks of the apo form vanish and new peaks of the holo species appear indicating the binding of T304 or B23 by TTR. The changes occur for specific TTR residues where the protein senses the chemical effect of the ligands or where the ligands induce structural changes in the protein. […] Analysis of the chemical shift perturbations in the holo TTR structure confirms the involvement of the halogen binding pocket in the binding but also highlights an effect that is well beyond the ligand binding site, involving the outer helix and the outer beta strands.

Row | Structure (SMILES) | rate constant k of ligand-induced quenching reaction ([1]; TTR and ligand 1 μM each) [s⁻¹] | burst phase amplitude ([1]; millisecond time scale, fluorescence quenching) [%] | bioavailability for an oral drug [2] | half-life in vivo [2] | IC50 [3] [nM] | Cmax [4] [ng/mL] | half-life [5] [h] | IC50 [6] [nM] | T 1/2 [1] [s] | % Aggregation (Turbidity method) [7] | % Aggregation (Fluorescence method) [8] | binding mode by NMR chemical shift changes [9]
1 | O=C(O)c1ccccc1Nc1cc(Cl)c(OCCCCCCCOc2c(Cl)cc(Nc3ccccc3C(=O)O)cc2Cl)c(Cl)c1 [mds84, reference compound] | 0.202 | 8 | very poor | short |  |  |  |  |  |  |  | 
2 | O=C(O)CCc1cc(Cl)c(OCCCOCCOc2c(Cl)cc(Nc3ccncc3C(=O)O)cc2Cl)c(Cl)c1 [Compound B27, 4-[4-[2-[3-[4-(2-carboxyethyl)-2,6-dichloro-phenoxy]propoxy]ethoxy]-3,5-dichloro-anilino]pyridine-3-carboxylic acid] |  |  |  |  | 2200 | 316 | 5.34 | 100 | 0.866 | 4.24 (1.96) % | 12.0 (1.06) % | 
3 | CCc1oc(-c2cc(Cl)c(OCC[C@@H](O)[C@H](O)CCOc3c(Cl)cc(CCC(=O)O)cc3Cl)c(Cl)c2)nc1C(=O)O [Compound B23, 2-[4-[(3R,4R)-6-[4-(2-carboxyethyl)-2,6-dichloro-phenoxy]-3,4-dihydroxy-hexoxy]-3,5-dichloro-phenyl]-5-ethyl-oxazole-4-carboxylic acid] |  |  |  |  | 9800 | 2580 | 5.11 | 110 | 1.216 | 4.41 (1.99) % | 12.6 (4.42) % | occupancy of both binding sites
